Test results: PMC8878717, “The Oxime Ethers with Heterocyclic, Alicyclic and Aromatic Moiety as Potential Anti-Cancer Agents” (Molecules, 2022)
Values after ≈ are worked out from the molar mass of the structure shown. Values joined by “and” are separate entries in the source; they are usually repeats but may differ in a detail not shown here. Identical values can stand only once. Like-named read-outs stand apart in the source and are kept apart here.

Legend:
[1] = MTT cytotoxicity test on HDF cells; type: cell-based, human; details: human, human dermal fibroblasts (HDF); 50 μg/mL, 24 h exposure
Procedure: (§1) Therefore, compounds showing the highest cytotoxicity (8, 9, 18, 22, 24–27) were further tested on normal human dermal fibroblasts (HDF), A549, Caco-2, and HeLa cells to compare their activity after 24 h and 72 h culture (Figure 5 and Figure 6).
(§2) 2-Acetylbenzofuran, 2-acetylbenzothiophene, 2-acetylthiophene, 2-acetylthiazole, cyclohexanone and acetophenone derivatives were used for in vitro cytotoxicity assays with cervical adenocarcinoma (HeLa), human dermal fibroblasts (HDF), lung epithelial carcinoma (A549), and intestinal epithelial carcinoma (Caco-2) cell lines. A549, Caco-2, and HeLa cells were obtained from Sigma-Aldrich (Germany), and HDF from Biokom (Poland). All cell lines were cultured according to the manufacturer’s protocol under sterile conditions in the presence of 4.9% CO2 at 37 °C. A549 cells were grown in F-12 medium containing 10% fetal bovine serum (FBS) and 1% penicillin/streptomycin. HDF cells were grown in DMEM (low glucose, with 2 mM glutamine) medium containing 10% fetal bovine serum (FBS) and 1% penicillin/streptomycin. Caco-2 cells were grown in EMEM medium containing 10% fetal bovine serum (FBS), 1% non-essential amino acids (NEAA) and 1% penicillin/streptomycin. HeLa cells were grown in DMEM (low glucose, with 2 mM glutamine) medium containing 10% fetal bovine serum (FBS) and 1% gentamycin. After thawing, cells were cultured until they reached sub-confluent state. The cells were then detached using 0.25% trypsin solution and seeded into 24-well or 96-well plates (3 × 10^3 cells per well) for further experiments. After 24 h growth, the tested compounds were added to the cell cultures in concentrations of 1, 10, 50, 100 and 250 μg mL^−1, respectively, and incubated for the next 24 h or 72 h. The MTT test, based on the ability to reduce 3-(4,5-dimethylthiazol 2-yl)-2,5-diphenyltetrazolium bromide (MTT) by mitochondrial dehydrogenases, was performed in triplicate to assess cell metabolic activity and viability. The plates were then read spectrophotometrically at a wavelength of 570 nm. The dose-dependence curves were charted directly on x-/y-axes, with the drug dosages on the x-axis and the cell viability (percentage of viable cells) on the y-axis.

[2] = system: human dermal fibroblasts (HDF); experiment: MTT cytotoxicity test on HDF cells; type: cell-based; details: Homo sapiens, Fibroblast, HDF, MTT
Procedure: as §1, §2

[3] = system: HeLa cells; experiment: MTT cytotoxicity test on HeLa cells; type: cell-based, human
Procedure: Cytotoxic properties of all compounds were determined by 3-(4,5-dimethylthiazol-2-yl)-2,5-diphenyltetrazolium bromide (MTT) test reflecting cell viability. Cytotoxicity screening of all 27 compounds—2-acetylbenzofuran oxime (6) and its oxime ethers (1–5), as well as: 2-acetylthiophene (7–17), cyclohexanone (18–20), acetophenone (21–23), thiazole (24–25), benzothiazole (26–27) oxime ethers—was performed in vitro on human cervical adenocarcinoma (HeLa) cells as the representatives of cancerous cells.
as §2

[4] = system: cells; experiment: LDH activity test (cell-membrane damage), cell lines not given; type: cell-based, human; details: exposure at EC50 concentration, 24 h and 72 h; positive control 1% Triton X-100 = 100%
Source text: (§3) Summing up, only a few of the 27 tested derivatives could be promising as potential anti-cancer agents. Two of them—compound 22 and 27—would be a good starting point for future research. Therefore, we sought to compare their ability to induce necrotic cell death. Since necrotic cell death relies on the disruption of cell membrane, it results in the extracellular release of cytoplasmic enzymes such as lactate dehydrogenase (LDH). Thus, we compared LDH activity in the extracellular environment (culture media).
(§4) Additionally, the lactate dehydrogenase (LDH) activity test reflecting cell-membrane damage was performed for cells exposed to selected tested compounds. LDH activity was determined in the culture medium by measuring the decrease in NADH (nicotinamide adenine dinucleotide, reduced disodium salt). The decrease in the amount of NADH was directly correlated to the increase in the number of damaged cells. To measure LDH activity, the culture medium was collected from the wells with cells exposed to concentrations equal to the EC50 values of tested compounds after short- (24 h), and long-time (72 h) exposure. The LDH activity test was performed as follows: 25 μL of NADH (2.5 mg/mL) and 25 μL of sodium pyruvate (2.5 mg/mL) were added to 150 μL of the collected culture medium. Absorbance at 340 nm was spectrophotometrically measured. […]

[5] = system: Caco-2 cells; experiment: MTT cytotoxicity test on Caco-2 cells; type: cell-based, human
Procedure: as §1, §2

[6] = system: A549 cells; experiment: MTT cytotoxicity test on A549 cells; type: cell-based; details: Homo sapiens
Procedure: as §1, §2

[7] = system: HeLa cells; experiment: LDH activity test (cell-membrane damage), HeLa cells; type: cell-based; details: exposure at EC50 concentration
Source text: as §3, §4

[8] = 24 h, read-out: EC50 Value HDF 24 h
[9] = 72 h, read-out: EC50 Value HDF 72 h
[10] = Homo sapiens, HeLa, 24 h, HeLa, 24 h culture, MTT, read-out: EC50 for HeLa Cells
[11] = Homo sapiens, HeLa, 72 h, HeLa, 72 h, MTT, read-out: EC50 Value HeLa 72 h
[12] = Homo sapiens, Caco-2, 24 h, MTT, read-out: EC50 Value Caco-2 24 h
[13] = Homo sapiens, Caco-2, 72 h, MTT, read-out: EC50 Value Caco-2 72 h
[14] = A549, 24 h, MTT, read-out: EC50 Value A549 24 h
[15] = A549, 72 h, MTT, read-out: EC50 Value A549 72 h

In the case of `C/C(=N\OCCN1CCOCC1)c1ccccc1` [Compound 22, (E)-acetophenone O-2-morpholinoethyl oxime], the viability at 24 h, 50 μg/mL [1] is reported as about 20%, the EC50 [2, 8] is reported as 27.3 µg/mL and 110 µM and the EC50 [2, 9] is reported as 8.04 µg/mL and 30 µM. For the same molecule, the “viability of HeLa cells (of control)” value ([3]; 100–250 μg/mL, MTT) was “below 20%”, the EC50 [3, 10] was 23.1 µg/mL and 90 µM and the EC50 [3, 11] was 30 µM. The EC50 ([3]; Homo sapiens, HeLa, 72 h, HeLa, 72 h, read-out: EC50 HeLa) was about 30 µM, the viability at 50 µg/mL ([3]; Homo sapiens, HeLa, 50 μg/mL, 24 h exposure) was about 20% and the “increase in LDH activity outside the cells (of positive control)” value [4] was at most 20%. For the same molecule, the EC50 [5, 12] was 9.45 µg/mL and 40 µM, the EC50 [5, 13] was 30 µM and the EC50 ([5]; Homo sapiens, Caco-2, 72 h, read-out: EC50 Caco-2) was about 30 µM. The viability at 50 µg/mL ([5]; Homo sapiens, Caco-2, 50 μg/mL, 24 h exposure) was about 20%, the EC50 [6, 14] was 10.2 µg/mL and 40 µM and the EC50 [6, 15] was 30 µM. It also gave an EC50 ([6]; A549, 72 h, read-out: EC50 A549) of about 30 µM and a viability at 50 µg/mL ([6]; A549, 50 μg/mL, 24 h exposure) of about 20%.

With `COc1ccc(CO/N=C(\C)c2cc3ccccc3s2)cc1` [Compound 27, (E)-1-(benzothiophene-2-yl)ethanone O-4-methoxybenzyl oxime] the EC50 [2, 8] was 150 µg/mL and 480 µM, the EC50 [2, 9] was 140 µg/mL and 450 µM and the “EC50 Value HeLa 72 h” value ([3]; HeLa, 72 h, MTT) was 27.9 µg/mL (≈ 89.6 µM). The EC50 [3, 10] was 93.8 µg/mL and 300 µM, the EC50 [3, 11] was 28 µg/mL and 90 µM and the “membrane damage and release of LDH” value [7] was “extreme membrane damage and release of LDH”. The “EC50 Value Caco-2 72 h” value ([5]; Caco-2, 72 h, MTT) was 116.47 µg/mL (≈ 374 µM), the EC50 [5, 12] was 122 µg/mL and 390 µM and the EC50 [5, 13] was 116 µg/mL and 370 µM. For the same molecule, the EC50 [6, 14] was > 250 µg/mL and > 800 µM and the EC50 [6, 15] was 143 µg/mL and 460 µM.
